Measured values taken from PMC9196629, “Synthesis, Characterization and Antitumor Mechanism Investigation of Heterometallic Ru(Ⅱ)-Re(Ⅰ) Complexes” (Frontiers in Chemistry, 2022).

Assays:
[1] = system: A549R (cisplatin-resistant A549); assay: MTT cytotoxicity assay; type: cell-based, human; settings: MTT, 48 h incubation, mean ± SD
Experimental: (§1) The anticancer activities of RuRe-1 and RuRe-2 against four cancer cell lines: HeLa (human cervical cancer cells), HepG2 (human hepatocellular carcinoma), A549 (human lung cancer cells), A549R (cisplatin-resistant A549) and one normal cell line LO2 (human normal liver cells) were determined by 3-(4,5-dimethylthiazole)-2,5-diphenyltetraazolium bromide (MTT) assay, while the mononuclear complexes Ru-1, Ru-2, Re-1 and cisplatin were selected as controls. […] And the in vitro antiproliferative efficacies of the compounds against HeLa cells were in the following order: RuRe-2 > RuRe-1 > Re-1 > cisplatin > Ru-1 > Ru-2. […] The anticancer activity of the mononuclear rhenium complex Re-1 was between 5.6 μM and 8.0 μM, which contributed the most to the antitumor activities of the heteronuclear Ru(II)-Re(Ⅰ) metal complexes.
(§2) Cell lines and culture conditions. HeLa, HepG2, A549, A549R and LO2 cells were purchased from Nanjing KeyGen Biotech., and cultured in DMEM or RPMI 1640 complete medium at 37 ℃ with 5% CO2 atmosphere.
(§3) In vitro cytotoxicity assay. The anti-tumor activity of mononuclear complexes Ru-1, Ru-2, Re-1 and heteronuclear RuRe-1 and RuRe-2 were determined by MTT (5 mg/mL) assay. Cells were placed in 96-well plates and cultured for 24 h at 37 ℃ in a 5% CO2 incubator. After replacing the culture medium with fresh medium containing RuRe-1 or RuRe-2 at the indicated concentration, cells were cultured for 48 h. 20 μL MTT was added to each well 4 h before the end of the incubation. Subsequently, the liquid in the cell wells was poured out and 150 μL/well DMSO was added to dissolve the MTT-formazan crystals. The absorbance of living cells at 570 nm was detected.

[2] = system: HeLa, HepG2, A549, A549R cancer cell lines; assay: MTT cytotoxicity assay, summary over the cell lines screened; type: cell-based, human; settings: 48 h
Experimental: as §1
as §3, with “Subsequently, the liquid in the cell wells was poured out and 150 μL/well DMSO was added to dissolve the MTT-formazan crystals.” left out

[3] = system: HeLa (human cervical cancer cells); assay: MTT cytotoxicity assay; type: cell-based; settings: 48 h incubation, mean ± SD
Experimental: as §1, §2, §3

[4] = system: HepG2 (human hepatocellular carcinoma); assay: MTT cytotoxicity assay; type: cell-based; settings: 48 h incubation, mean ± SD
Experimental: as §1, §2, §3

[5] = system: A549 (human lung cancer cells); assay: MTT cytotoxicity assay; type: cell-based; settings: 48 h incubation, mean ± SD
Experimental: as §1, §2, §3

[6] = system: LO2 (human normal liver cells); assay: MTT cytotoxicity assay; type: cell-based; settings: 48 h incubation, mean ± SD
Experimental: as §1, §2, §3

Row | SMILES | IC50 [1] | antitumor activity against all cancer cell lines screened [2] | IC50 [3] | IC50 [4] | IC50 [5] | IC50 [6]
1 | F[P-](F)(F)(F)(F)F.F[P-](F)(F)(F)(F)F.c1cc2ccc3ccc[n+]4c3c2[n+](c1)[Ru-4]412([n+]3cccc4ccc5ccc[n+]1c5c43)[n+]1cccc3c4nc(-c5ccncc5)[nH]c4c4ccc[n+]2c4c31 [Ru-2] | > 50 µM | negligible antitumor activity | 43.6 ± 1.2 µM | > 50 µM | > 50 µM | > 50 µM
2 | N.N.[Cl][Pt][Cl] [Cisplatin, reference compound] | 90.3 ± 0.3 µM |  | 19.3 ± 0.5 µM | 23.5 ± 2 µM | 25.9 ± 0.8 µM | 22.5 ± 2 µM
3 | F[P-](F)(F)(F)(F)F.F[P-](F)(F)(F)(F)F.[Ru+2].c1ccc(-c2ccccn2)nc1.c1ccc(-c2ccccn2)nc1.c1cnc2c(c1)c1nc(-c3ccncc3)[nH]c1c1cccnc12 [Ru-1, reference compound] | > 50 µM | negligible antitumor activity | 39.8 ± 0.6 µM | > 50 µM | > 50 µM | > 50 µM
